In article PMC7688903 (Frontiers in Microbiology, 2020):
Values after ≈ are worked out from the molar mass of the structure shown. Where a SMILES comes first, the peptide text is derived from it. [ ]: non-standard residue; d: D form. 2Thi = N[C@@H](Cc1cccs1)C(=O)O; Aib = CC(C)(N)C(=O)O

Assays:
C. albicans ATCC 10231 = assay: microbe, parasite or virus in culture; format: cell-based, Candida albicans; settings: ATCC 10231, 48 h
How it was run: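 Inocula were set to 0.5 McFarland and diluted to ~5 × 10^5 CFU/mL (bacteria, MH broth) or 0.5 × 10^3 to 2.5 × 10^3 CFU/mL (yeast, RPMI 1640). Peptide twofold dilutions were added, plates incubated 20 h at 37°C or 48 h at 35°C, then scored by eye.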

[1] = tested on: proteases secreted by A. baumannii ATCC 19606; assay: in vitro; settings: Acinetobacter baumannii, A. baumannii ATCC 19606 culture supernatant, pH 8
How it was run: (§1)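 Cell-free culture supernatants (overnight, 37°C; MH broth for bacteria, 2% tryptone/2% dextrose for yeast) were centrifuged, adjusted to pH 8.0 and 0.22 μm filtered. Peptides at 0.5 mg/mL were incubated in supernatant 24 h at 37°C; remaining intact peptide measured by RP-HPLC, with peptide-free supernatant as negative control.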

[2] = tested on: proteases secreted by C. albicans ATCC 10231; assay: in vitro; settings: C. albicans ATCC 10231 culture supernatant (2% tryptone/2% dextrose), pH 8.0, 0.22 μm filtered; peptide 0.5 mg/mL; 37°C, 24 h; RP-HPLC
How it was run: as §1

[3] = tested on: proteases secreted by P. aeruginosa ATCC 27853; assay: in vitro; settings: Pseudomonas aeruginosa, P. aeruginosa ATCC 27853 culture supernatant, pH 8
How it was run: as §1

[4] = tested on: all of the bacterial and fungal supernatants tested; settings: pH 8.0, peptide 0.5 mg/mL, 37°C, 24 h, RP-HPLC
Procedure: The stabilities of the peptides toward proteases secreted by E. coli ATCC 25922, P. aeruginosa ATCC 27853, A. baumannii ATCC 19606, S. aureus ATCC 25923, and C. albicans ATCC 10231 were also examined. Microbial supernatants were prepared by resuspending single colonies of each strain in 20 mL of an appropriate culture medium followed by incubation at 37°C overnight. MH broth and 2% tryptone/2% dextrose were used as the culture media for bacteria and yeast, respectively. Each culture was then centrifuged at 12,000 × g for 10 min and the supernatant was adjusted to pH 8.0 with HCl or NaOH and then filtered through a 0.22 μm sterile filter membrane ([Zaet et al., 2017]). The peptides were then dissolved in the filtered supernatants to a concentration of 0.5 mg/mL, and the peptide-free supernatants were used as negative controls. The samples were incubated at 37°C for 24 h in a water bath and then analyzed by RP-HPLC as described above.

human erythrocytes = assay: Hemolytic activity assay; format: cell-based; settings: human RBC in PB, 37°C, 1 h, OD420, total lysis control 0.1% SDS, three technical replicates
How it was run: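 Washed RBCs from a healthy volunteer were incubated with peptides at 32–128 μM for 1 h at 37°C in PB. Hemoglobin release into the supernatant was read as OD420 against total lysis with 0.1% SDS, in three technical replicates.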

P. aeruginosa ATCC 9027 = assay: In vivo antibacterial activity, lethal intraperitoneal infection; settings: BALB/c mice, lethal i.p. dose of P. aeruginosa ATCC 9027, 10 mg/kg i.p. at 1 and 8 h post-infection, n = 10
Procedure: The in vivo antibacterial activities of the peptides were evaluated in BALB/c mice using P. aeruginosa ATCC 9027 as a test strain. A total of 20 mice (6 weeks old, approximate weight: 18–20 g, SFP grade) were first used to measure the minimal lethal doses (MLD) with 5 mice for each inoculum. Cell numbers of selected strains were determined from the colony numbers from the plate count agar and four inocula (1 × 10^6, 5 × 10^6, 1 × 10^7, and 5 × 10^7 CFU/mouse) were administered via intraperitoneal injection. The minimal lethal dose was determined by measuring the mortality rate after 72 h. BALB/c mice were then injected intraperitoneally with a lethal dose of P. aeruginosa ATCC 9027. […] Colistin (10 mg/kg) was used as a positive control. The survival of the animals was monitored over 7 d.

Row | Compound | MIC (C. albicans ATCC 10231) [µg/mL] | remaining at 24 h, 0.5 mg/mL [1] [%] | Percent of remained peptide amount after incubation (%) [2] [%] | remaining at 24 h, 0.5 mg/mL [3] [%] | original peptide remaining in microbial supernatants [4] | Hemolysis rate (%) (human erythrocytes; 64 μM) | Hemolysis rate (%) (human erythrocytes; 128 μM) | survival rate (P. aeruginosa ATCC 9027; after 3 d) [%] | survival rate (P. aeruginosa ATCC 9027; after 7 d) [%]
1 | CC(C)C[C@H](NC(=O)[C@H](CC(C)C)NC(=O)[C@@H](CCCCN)NC(=O)[C@@H](CCCCN)NC(=O)[C@H](Cc1ccccc1)NC(=O)[C@H](CC(C)C)NC(=O)[C@@H](CCCNC(=N)N)NC(=O)[C@H](N)CCCCN)C(=O)N[C@H](CCCCN)C(=O)N[C@@H](Cc1ccc(O)cc1)C(=O)N[C@@H](CC(C)C)C(=O)N[C@H](CCCNC(=N)N)C(=O)N[C@H](CCCCN)C(=O)N[C@@H](Cc1ccccc1)C(N)=O [DP06] (H-[dK][dR]LF[dK][dK]LL[dK]YL[dR][dK]F-NH2) | 2 (≈ 1.06 µM) | 63.5 ± 3.28 | 62.07 ± 3.27 | 61.2 ± 6.06 | more than 60% | 37.14 ± 2.73 | 59.99 ± 2.41 | – | –
2 | CC(C)C[C@H](NC(=O)[C@H](Cc1ccc(O)cc1)NC(=O)[C@H](CCCCN)NC(=O)[C@H](CC(C)C)NC(=O)[C@H](CC(C)C)NC(=O)[C@H](CCCCN)NC(=O)[C@H](CCCCN)NC(=O)[C@H](Cc1ccccc1)NC(=O)[C@H](CC(C)C)NC(=O)[C@H](CCCNC(=N)N)NC(=O)C(C)(C)N)C(=O)N[C@@H](CCCNC(=N)N)C(=O)N[C@@H](CCCCN)C(=O)N[C@@H](Cc1cccs1)C(N)=O [UP09] (H-[Aib]RLFKKLLKYLRK[2Thi]-NH2; N-terminus assumed) | 4 (≈ 2.17 µM) | – | – | – | – | 55.99 ± 3.75 | 95.99 ± 2.10 | 40 | 10
